Experimental data taken from US9676760B2, “Fused heterocyclic compounds as ion channel modulators” (Gilead Sciences, Inc., priority 2011, dated 2017).

Tests used:
[1] = target: T1, wild-type human cardiac sodium channel, hNav1.5 (Homo sapiens, UniProt Q14524); test: Late INa screening assay (QPatch whole cell patch clamp, HEK293); format: cell-based; settings: for inhibition at 1 µM: HEK293, percent block of late INa, compound at 1 μM, 10 μM Tefluthrin, read-out: Late INa 1 μM
Method in brief: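 HEK293 stably expressing hNav1.5 without beta subunits, recorded at 23-25° C. Late current was induced by 10 μM tefluthrin. Cells were depolarized from −120 mV to −20 mV for 250 ms at 0.1 Hz. Compounds were tested at 1 μM in extracellular solution, with baseline taken in 0Na-ECF; output is percent block of late INa.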

[2] = target: T1, wild-type human cardiac sodium channel, hNav1.5; test: Peak INa screening assay (tonic and use-dependent block); format: cell-based; settings: compound at 1 μM
Method: The late sodium current (Late INa) and peak sodium current (Peak INa) assays are performed on an automated electrophysiology platform, QPatch 16× (Sophion Bioscience, Copenhagen, Denmark), which uses the whole cell patch clamp technique to measure currents through the cell membrane of up to 16 cells at a time. The assay uses an HEK293 (human embryonic kidney) cell line heterologously expressing the wild-type human cardiac sodium channel, hNav1.5, purchased from Millipore (Billerica, Mass.). No beta subunits were coexpressed with the Na channel alpha subunit. Cells are maintained with standard tissue culture procedures and stable channel expression is maintained with 400 μg/mL Geneticin in the culture medium. Cells isolated for use on QPatch are incubated for 5 minutes in Detachin 1×(Genlantis, San Diego, USA) at 37° C. to ensure that 80-90% of the cells are single and not part of a cell cluster. Experiments are carried out at 23-25° C.
For both the Late INa and Peak INa assays, series resistance compensation is set to 100% and series resistance and whole-cell compensation are performed automatically. Currents are digitized at 25 kHz and low-pass filtered at 12 kHz and 10 kHz for the late and peak INa assays, respectively. Currents through open sodium channels are automatically recorded and stored in the Sophion Bioscience Oracle database (Sophion Bioscience, Copenhagen, Denmark). Analysis is performed using QPatch Assay and database software and data are compiled in Excel.
Compound stocks are routinely made by the Gilead Sample Bank in plastic vials to 10 mM in dimethyl sulfoxide (DMSO). In some cases, when compounds are not soluble in DMSO, they are made in 100% ethanol. Stocks are sonicated as necessary. The extracellular solution for screening Late INa is composed of: 140 mM NaCl, 4 mM KCl, 1.8 mM CaCl2, 0.75 mM MgCl2 and 5 mM HEPES with pH adjusted to 7.4 using NaOH. The intracellular solution used to perfuse the inside of the cells for both the Late INa and Peak INa assays contains: 120 mM CsF, 20 mM CsCl, 5 mM EGTA, 5 mM HEPES and pH adjusted to 7.4 with CsOH. Compounds are diluted in extracellular solution to 1 μM in glass vials and then transferred to glass well plates before robotic addition to the cells. The 0 mM Na extracellular solution (0Na-ECF) used at the end of each experiment for the Late INa and Peak INa assays to measure baseline current contains: 140 mM N-methyl-D-glucamine; 4 mM KCl; 1.8 mM CaCl2; 0.75 mM MgCl2; 5 mM HEPES and pH was adjusted to 7.4 with HCl.
Compounds were also evaluated for their effect in several other assays, including their effect on Peak INa. […] Since the peak INa in the cells used herein can be very large, introducing artifacts in the recording, the concentration of Na^+ in the bath can be reduced to 20 mM and a nonpermeant cation added to compensate for the Na^+ that was removed to maintain the osmolarity and ionic strength of the solution (see solution details below).
A low stimulation frequency of 0.1 Hz was used to determine the effect of the test compound when the channel spent most of the time in the resting (closed) state and provides information about Tonic Block (TB). A higher stimulation frequency (3 Hz) was used to measure block of the channel when it spent more time in the activated and inactivated states and provided a measure of Use-Dependent Block (UDB). Use-dependent block refers to the accumulation of block with increased frequency of channel activation.

[3] = tonic block of peak INa, 0.1 Hz, read-out: Peak TB 1 μM
[4] = use-dependent block of peak INa, 3 Hz, read-out: Peak UDB 1 μM

T1 sequence (Q14524 whole entry): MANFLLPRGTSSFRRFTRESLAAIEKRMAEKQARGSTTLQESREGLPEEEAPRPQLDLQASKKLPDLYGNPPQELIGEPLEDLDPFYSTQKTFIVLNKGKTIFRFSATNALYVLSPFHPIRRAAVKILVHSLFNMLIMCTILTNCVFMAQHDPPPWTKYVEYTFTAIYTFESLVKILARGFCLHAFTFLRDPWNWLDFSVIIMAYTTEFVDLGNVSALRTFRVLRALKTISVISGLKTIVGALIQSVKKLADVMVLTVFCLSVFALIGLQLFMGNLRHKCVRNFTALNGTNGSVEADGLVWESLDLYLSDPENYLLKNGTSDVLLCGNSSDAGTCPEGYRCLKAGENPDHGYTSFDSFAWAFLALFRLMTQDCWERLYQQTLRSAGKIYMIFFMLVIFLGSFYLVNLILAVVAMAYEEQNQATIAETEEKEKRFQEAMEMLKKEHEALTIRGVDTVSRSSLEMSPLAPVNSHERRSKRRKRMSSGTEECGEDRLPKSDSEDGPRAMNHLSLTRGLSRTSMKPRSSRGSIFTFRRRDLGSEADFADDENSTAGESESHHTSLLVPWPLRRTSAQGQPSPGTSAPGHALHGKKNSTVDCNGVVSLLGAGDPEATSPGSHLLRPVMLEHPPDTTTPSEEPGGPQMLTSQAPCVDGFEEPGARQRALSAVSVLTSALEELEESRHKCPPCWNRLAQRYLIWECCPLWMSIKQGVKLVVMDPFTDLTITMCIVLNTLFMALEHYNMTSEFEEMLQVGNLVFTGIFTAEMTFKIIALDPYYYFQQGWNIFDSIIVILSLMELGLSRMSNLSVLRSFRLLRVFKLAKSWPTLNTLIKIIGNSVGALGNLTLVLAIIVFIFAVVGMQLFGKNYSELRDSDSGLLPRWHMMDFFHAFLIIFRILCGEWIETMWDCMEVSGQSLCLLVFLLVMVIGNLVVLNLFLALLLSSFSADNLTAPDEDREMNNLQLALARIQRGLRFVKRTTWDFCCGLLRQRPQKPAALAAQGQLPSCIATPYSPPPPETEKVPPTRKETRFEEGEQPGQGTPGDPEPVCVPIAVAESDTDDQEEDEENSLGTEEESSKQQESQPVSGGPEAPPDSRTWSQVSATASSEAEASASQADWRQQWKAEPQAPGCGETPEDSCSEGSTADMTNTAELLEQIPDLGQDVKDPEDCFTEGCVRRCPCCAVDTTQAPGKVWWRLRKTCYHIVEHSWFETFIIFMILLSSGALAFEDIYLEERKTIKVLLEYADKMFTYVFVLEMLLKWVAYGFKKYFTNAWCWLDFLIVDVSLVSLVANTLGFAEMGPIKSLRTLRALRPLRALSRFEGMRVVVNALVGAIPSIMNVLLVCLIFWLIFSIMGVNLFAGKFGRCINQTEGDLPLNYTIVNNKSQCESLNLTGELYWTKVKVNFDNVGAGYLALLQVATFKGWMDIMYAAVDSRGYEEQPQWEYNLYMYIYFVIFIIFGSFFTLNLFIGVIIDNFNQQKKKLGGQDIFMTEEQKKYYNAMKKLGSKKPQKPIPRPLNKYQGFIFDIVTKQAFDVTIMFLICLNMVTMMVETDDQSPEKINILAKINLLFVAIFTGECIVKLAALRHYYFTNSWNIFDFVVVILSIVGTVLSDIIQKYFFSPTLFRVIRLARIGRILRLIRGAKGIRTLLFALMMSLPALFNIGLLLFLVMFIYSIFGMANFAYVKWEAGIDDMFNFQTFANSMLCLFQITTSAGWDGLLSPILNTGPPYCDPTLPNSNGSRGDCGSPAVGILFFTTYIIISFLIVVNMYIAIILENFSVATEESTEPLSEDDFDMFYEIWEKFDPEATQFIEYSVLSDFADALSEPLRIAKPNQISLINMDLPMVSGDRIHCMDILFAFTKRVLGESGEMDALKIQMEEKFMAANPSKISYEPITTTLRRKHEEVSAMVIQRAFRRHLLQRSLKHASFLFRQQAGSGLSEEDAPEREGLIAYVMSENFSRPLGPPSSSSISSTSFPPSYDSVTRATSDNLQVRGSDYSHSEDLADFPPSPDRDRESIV

Structure (SMILES)	inhibition at 1 µM [1]	inhibition at 1 µM [2, 3]	inhibition at 1 µM [2, 4]	inhibited (or reduced) the late sodium current ([1]; 10 μM Tefluthrin activating late INa)
O=C1c2cc(-c3ccc(C4CC4)s3)ccc2OCCN1Cc1ccccn1 [VI-32, 7-(5-cyclopropylthiophen-2-yl)-4-(pyridin-2-ylmethyl)-3,4-dihydrobenzo[f][1,4]oxazepin-5(2H)-one]	66%	28%	26%	–
O=C1c2nc(-c3ccc(C(F)(F)F)cc3)ccc2OCCN1Cc1ccccc1 [XII-3, 4-benzyl-7-(4-(trifluoromethyl)phenyl)-3,4-dihydropyrido[2,3-f][1,4]oxazepin-5(2H)-one]	44%	51%	79%	–
O=C(c1cc[nH]n1)N1CCOc2ccc(-c3ccc(OC(F)(F)F)cc3)cc2C1 [III-15, (1H-pyrazol-3-yl)(7-(4-(trifluoromethoxy)phenyl)-2,3-dihydrobenzo[f][1,4]oxazepin-4(5H)-yl)methanone]	50%	19%	18%	–
O=C1c2cc(-c3ccc(OC(F)(F)F)cc3)ccc2OCCN1Cc1ccn(C(F)F)n1 [II-147, 4-((1-(difluoromethyl)-1H-pyrazol-3-yl)methyl)-7-(4-(trifluoromethoxy)phenyl)-3,4-dihydrobenzo[f][1,4]oxazepin-5(2H)-one]	54%	13%	6%	–
Cn1ccnc1CN1CCOc2ccc(-c3ccc(OC(F)(F)F)cc3)cc2C1=O [II-186, 4-((1-methyl-1H-imidazol-2-yl)methyl)-7-(4-(trifluoromethoxy)phenyl)-3,4-dihydrobenzo[f][1,4]oxazepin-5(2H)-one]	55%	20%	30%	–
O=C1c2cc(-c3ccc(OC(F)(F)F)cc3)ccc2OCCN1Cc1cccc(C(F)(F)F)n1 [II-15, 7-(4-(trifluoromethoxy)phenyl)-4-((6-(trifluoromethyl)pyridin-2-yl)methyl)-3,4-dihydrobenzo[f][1,4]oxazepin-5(2H)-one]	48%	8%	8%	–
O=C1c2cc(-c3ccc(C(F)(F)F)cc3)ccc2OCCN1Cc1ccccc1 [II-141, 4-benzyl-7-(4-(trifluoromethyl)phenyl)-3,4-dihydrobenzo[f][1,4]oxazepin-5(2H)-one]	73%	40%	40%	–
O=C1c2cc(-c3ccc(OC(F)(F)F)cc3)ccc2OCCN1Cc1ccccc1 [II-134, 4-benzyl-7-(4-(trifluoromethoxy)phenyl)-3,4-dihydrobenzo[f][1,4]oxazepin-5(2H)-one]	69%	38%	34%	–
O=C1c2cc(-c3ccc(OC(F)(F)F)cc3)ccc2OCCN1Cc1c(Cl)cccc1Cl [II-48, 4-(2,6-dichlorobenzyl)-7-(4-(trifluoromethoxy)phenyl)-3,4-dihydrobenzo[f][1,4]oxazepin-5(2H)-one]	47%	13%	53%	–
Cc1cncc(CN2CCOc3ccc(-c4ccc(OC(F)(F)F)cc4)cc3C2=O)n1 [II-175, 4-((6-methylpyrazin-2-yl)methyl)-7-(4-(trifluoromethoxy)phenyl)-3,4-dihydrobenzo[f][1,4]oxazepin-5(2H)-one]	53%	21%	16%	–
O=C1c2cc(-c3ccc(OC(F)(F)F)cc3)ncc2OCCN1Cc1ncccc1F [XII-11, 4-((3-fluoropyridin-2-yl)methyl)-7-(4-(trifluoromethoxy)phenyl)-3,4-dihydropyrido[4,3-f][1,4]oxazepin-5(2H)-one]	55%	25%	24%	–
Cn1ccc(CN2CCOc3ccc(-c4ccc(OC(F)(F)F)cc4)cc3C2=O)n1 [II-64, 4-((1-methyl-1H-pyrazol-3-yl)methyl)-7-(4-(trifluoromethoxy)phenyl)-3,4-dihydrobenzo[f][1,4]oxazepin-5(2H)-one]	55%	12%	19%	–
O=C1c2cc(-c3ccc(OC(F)(F)F)cc3)ccc2OCCN1Cc1c(F)cccc1F [II-49, 4-(2,6-difluorobenzyl)-7-(4-(trifluoromethoxy)phenyl)-3,4-dihydrobenzo[f][1,4]oxazepin-5(2H)-one]	63%	28%	44%	–
Cc1cnc(CN2CCOc3ccc(-c4ccc(OC(F)(F)F)cc4)cc3C2=O)o1 [II-33, 4-((5-methyloxazol-2-yl)methyl)-7-(4-(trifluoromethoxy)phenyl)-3,4-dihydrobenzo[f][1,4]oxazepin-5(2H)-one]	46%	10%	13%	–
O=C1c2cc(-c3ccc(OC(F)(F)F)cc3)cc(F)c2OCCN1Cc1ccccc1 [II-165, 4-benzyl-9-fluoro-7-(4-(trifluoromethoxy)phenyl)-3,4-dihydrobenzo[f][1,4]oxazepin-5(2H)-one]	56%	15%	30%	–
O=C1c2cc(-c3ccc(C(F)F)cc3)ccc2OCCN1Cc1ccccn1 [II-157, 7-(4-(difluoromethyl)phenyl)-4-(pyridin-2-ylmethyl)-3,4-dihydrobenzo[f][1,4]oxazepin-5(2H)-one]	43%	13%	16%	–
O=C1c2cc(-c3ccc(OC(F)(F)F)cc3)ccc2OCCN1Cc1nccn1Cc1ccccc1 [II-187]	62%	9%	21%	–
CCn1ccc(CN2CCOc3ccc(-c4ccc(OC(F)(F)F)cc4)cc3C2=O)n1 [II-153, 4-((1-ethyl-1H-pyrazol-3-yl)methyl)-7-(4-(trifluoromethoxy)phenyl)-3,4-dihydrobenzo[f][1,4]oxazepin-5(2H)-one]	56%	15%	13%	–
O=C1c2cc(-c3ccc(C(F)(F)F)cc3F)ccc2OCCN1Cc1ncccn1 [Compound 11-105]	–	–	–	45%
O=C1c2cc(-c3ccc(OC(F)(F)F)cc3)ccc2OCCN1Cc1ccn(C2CCCC2)n1 [II-152, 4-((1-cyclopentyl-1H-pyrazol-3-yl)methyl)-7-(4-(trifluoromethoxy)phenyl)-3,4-dihydrobenzo[f][1,4]oxazepin-5(2H)-one]	23%	–	–	–
O=C1c2cc(CCc3ccc(C(F)(F)F)cc3)ccc2OCCN1Cc1ncccn1 [VIII-8, 4-(pyrimidin-2-ylmethyl)-7-(4-(trifluoromethyl)phenethyl)-3,4-dihydrobenzo[f][1,4]oxazepin-5(2H)-one]	47%	–	–	–
CC1(C(=O)N2CCOc3ccc(-c4ccc(OC(F)(F)F)cc4)cc3C2)CC1 [III-10, (1-methylcyclopropyl)(7-(4-(trifluoromethoxy)phenyl)-2,3-dihydrobenzo[f][1,4]oxazepin-4(5H)-yl)methanone]	29%	–	–	–
O=C1c2cc(-c3ccc(OC(F)(F)F)cc3)ccc2OCCN1CCc1ncccn1 [II-44, 4-(2-(pyrimidin-2-yl)ethyl)-7-(4-(trifluoromethoxy)phenyl)-3,4-dihydrobenzo[f][1,4]oxazepin-5(2H)-one]	39%	–	–	–
Cc1ccc(-c2ccc3c(c2)C(=O)N(Cc2ncccn2)CCO3)cc1 [II-87, 4-(pyrimidin-2-ylmethyl)-7-p-tolyl-3,4-dihydrobenzo[f][1,4]oxazepin-5(2H)-one]	22%	–	–	–
